Consider two compounds from the NIST ThermoML archive (doi:10.1016/j.tca.2013.01.028).

A short description of this series: excess molar enthalpy (molar enthalpy of mixing); xn = mol fraction of the nth substance listed. The settings on record: 303.15 K, 101 kPa, Liquid, Calvet calorimetry.

± gives the expanded uncertainty stated by the source.

`c1ccccc1` [benzene] + CCCCCCC: the excess molar enthalpy reads like this: (x1 = 0.2481) 0.145 ± 0.00167 kcal/mol; (x1 = 0.5) 0.221 ± 0.00239 kcal/mol; (x1 = 0.7576) 0.186 ± 0.0021 kcal/mol.

Take `c1ccccc1` [benzene] + Cc1ccccc1: the excess molar enthalpy is 0.013 ± 0.000359 kcal/mol (x2 = 0.247), 0.017 ± 0.000406 kcal/mol (x2 = 0.4944) and 0.0114 ± 0.000359 kcal/mol (x2 = 0.7685).
